From PMC3265452 (PLoS Neglected Tropical Diseases, 2012)
Where a name gives a salt, the structure may show the parent alone. Read-outs that look alike come from different tables or passages of the source.

Target: AaDOP2 (Aedes aegypti, UniProt H6D5H2)
Experiment: AaDOP2 antagonist screen of the LOPAC1280 library (HEK-CRELuc-Aadop2 cells, luminescence)
Format: cell-based
[1] = 10 µM compound, 300 nM dopamine, 2 hr, hit = compound effect <20

Chain of AaDOP2 (H6D5H2 1-476): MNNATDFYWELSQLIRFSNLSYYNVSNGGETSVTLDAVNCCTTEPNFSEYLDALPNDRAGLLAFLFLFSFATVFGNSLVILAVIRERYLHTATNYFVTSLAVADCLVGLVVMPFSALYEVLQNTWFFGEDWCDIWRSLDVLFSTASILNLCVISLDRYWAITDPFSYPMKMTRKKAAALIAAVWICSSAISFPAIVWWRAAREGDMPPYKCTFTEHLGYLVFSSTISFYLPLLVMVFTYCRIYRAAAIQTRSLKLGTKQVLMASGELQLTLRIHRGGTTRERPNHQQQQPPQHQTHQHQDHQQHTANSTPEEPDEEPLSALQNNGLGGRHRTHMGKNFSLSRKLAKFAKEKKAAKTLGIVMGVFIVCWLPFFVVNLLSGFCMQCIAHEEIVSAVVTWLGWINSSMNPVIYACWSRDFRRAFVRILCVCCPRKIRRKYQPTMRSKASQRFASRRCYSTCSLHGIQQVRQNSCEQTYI

Row | SMILES | Compound effect (percent receptor signaling in presence of test compound, relative lux units relative to the SCH23390 control) | Compound effect (percent receptor signaling in presence of test compound, relative lux units relative to the SCH23390 control) [1] [%]
1 | Oc1cc(-c2ccccc2)nc2nc(Cl)ccc12 [Compound 279, 7-Chloro-4-hydroxy-2-phenyl-1,8-naphthyridine] | 100 | –
2 | Clc1ccccc1C(c1ccccc1)(c1ccccc1)n1ccnc1 [Compound 280, Clotrimazole] | 77 | –
3 | CN1CCC(=C2c3ccccc3C=Cc3ccccc32)CC1 [Compound 281, Cyproheptadine hydrochloride] | 86 | –
4 | Nc1ncnc2c1ncn2[C@@H]1O[C@H](C(=O)NC2CC2)[C@@H](O)[C@H]1O [Compound 282, 5'-(N-Cyclopropyl)carboxamidoadenosine] | – | 82
5 | CO[C@@]1(NC(=O)CSCC#N)C(=O)N2C(C(=O)O)=C(CSc3nnnn3C)CS[C@@H]21 [Compound 283, Cefmetazole sodium] | 74 | –
6 | CCN(CC)CCCC(C)Nc1ccnc2cc(Cl)ccc12 (centres unmarked) [Compound 286, Chloroquine diphosphate] | 83 | –
7 | CCOC(=O)C(C)(C)Oc1ccc(Cl)cc1 [Compound 287, Clofibrate] | 74 | –
8 | Cl.Nc1ccn([C@@H]2O[C@H](CO)[C@@H](O)[C@@H]2O)c(=O)n1 [Compound 288, Cytosine-1-beta-D-arabinofuranoside hydrochloride] | – | 92
9 | CCCN(CCC)C(=O)Cc1c(-c2ccc(Cl)cc2)nc2c(Cl)cc(Cl)cn12 [Compound 289, CB34] | 106 | –
10 | N[C@@H](C(=O)N[C@@H]1C(=O)N2C(C(=O)O)=C(Cl)CS[C@H]12)c1ccccc1 [Compound 290, Cefaclor] | 87 | –
11 | C[N+](C)(C)CC#CCOC(=O)Nc1cccc(Cl)c1.[Cl-] [Compound 292, McN-A-343] | 121 | –
12 | COc1cccc(C(=O)NCCN2CCN(c3ccc(Cl)cc3)CC2)c1 [Compound 293, N-(2-[4-(4-Chlorophenyl)piperazin-1-yl]ethyl)-3-methoxybenzamide] | 95 | –
13 | NCCSSCCN [Compound 294, Cystamine dihydrochloride] | 84 | –
14 | CNc1ccc2oc(C[C@H]3O[C@@]4(CC[C@H]3C)O[C@H]([C@H](C)C(=O)c3ccc[nH]3)[C@H](C)C[C@H]4C)nc2c1C(=O)O [Compound 296, Calcimycin] | 102 | –
15 | C[C@@]12C(=O)OC(=O)[C@]1(C)[C@H]1CC[C@@H]2O1 [Compound 297, Cantharidin] | 96 | –
16 | CN(C)CCCC1(c2ccc(F)cc2)OCc2cc(C#N)ccc21 (centres unmarked) [Compound 298, Citalopram hydrobromide] | 90 | –
17 | Clc1cccc(Cl)c1N=C1NCCN1 [Compound 299, Clonidine hydrochloride] | 100 | –
18 | CO/N=C(\C(=O)N[C@@H]1C(=O)N2C(C(=O)O)=C(COC(C)=O)CS[C@H]12)c1csc(N)n1 [Compound 300, Cefotaxime sodium] | 93 | –
19 | CN(C(=O)CCCOc1ccc2[nH]c(=O)ccc2c1)C1CCCCC1 [Compound 301, Cilostamide] | 88 | –
20 | O=C(O)c1cc(O)cc(C(=O)O)n1 [Compound 302, Chelidamic acid] | 82 | –
